Experimental data as given in patent publication US12678436B2, “Pharmaceutical composition for preventing or treating fibrosis” (Daewoong Pharmaceutical Co., Ltd., priority 2021, dated 2026).

Key:
[1] = system: animal model of pulmonary fibrosis; assay: Lung function evaluation (SpO2) in BLM-administered mice; assay type: in vivo; conditions: for SpO2: 2 weeks, 21st day after BLM
Procedure: (§1) 70-100 μL of BLM solution (bleomycin 1-3 mg/kg) was administered to a lung of the acclimatized experimental animals using a catheter for 5 days or more. In accordance with the purpose of the test, the test drug was administered 7 days after BLM administration, and the drug was orally administered for 2 weeks until the 21st day of BLM administration. Body weight, SpO2, hydroxyproline, and inflammation cell counts were measured to determine the anti-fibrotic efficacy of the active component.
(§2) As a control group, Nintedanib (hereinafter ‘NIN’) and Pirfenidone (hereinafter ‘PID’), which are standard of care (hereinafter ‘SoC’) for idiopathic pulmonary fibrosis, were used. The effective dose of NIN used was confirmed through in vivo efficacy data in the literature published by Boehringer Ingelheim, which is a NIN development company, and the effective dose of PID was set in terms of mice based on in vivo efficacy (rat) data and 2-week repeated toxicity dose (rat) in FDA Pharmacology Review.
This lung function evaluation is the most direct and important evaluation index that has the greatest influence on the symptoms and quality of life of patients with pulmonary fibrosis, and is an experiment that can most directly show the effect of improving lung function in an animal model of pulmonary fibrosis by measuring the oxygen concentration in the body.
On the 21st day, it was measured with a SpO2 measuring device (Berry, Veterinary Pulse Oximeter) via the abdominal side of the mouse, and the results are shown in Table 2 and FIG. 1.

[2] = system: animal model of pulmonary fibrosis; assay: Measurement of total collagen content in lung (INSOLUBLE Collagen Assay); assay type: in vivo, mice; conditions: for collagen content in lung (hydroxyproline ratio value compared with normal group): 21st day
Procedure: as §1, §2
Pulmonary fibrosis is the accumulation of collagen in the lungs to make it stiff. The main cause of pulmonary fibrosis is the accumulation of collagen, and the degree of progression of fibrosis can be predicted by measuring the collagen content in the lung tissue.
In this experimental example, analysis was performed using INSOLUBLE Collagen Assay (Biocolor, S2000). After sacrifice on the 21st day, the cryopreserved lung tissue was pulverized by adding 100 uL of Fragmentation Reagent, and then, 100 uL of 37% HCl was added and incubated at 65°C. for 3 hours. The contents of the tube were shaken at 30 minute intervals to aid tissue disintegration. After centrifugation, the concentration was adjusted to 100 μL and collagen staining was proceeded to prepare a sample. Absorbance was measured at 560 nm.

[3] = system: animal model of pulmonary fibrosis; assay: Histopathology (Ashcroft score) analysis of lung tissue; assay type: in vivo, mice; conditions: for Fibrotic Index (±SEM): 21st day, 9 individuals
Procedure: as §1, §2
The degree of fibrosis and inflammation of the lung tissue were visually observed through a microscope, and the degree of fibrosis of lung tissue was measured with a Fibrotic Index according to normalized criteria. The higher the Fibrotic Index value, the more severe the degree and symptom of fibrosis. It is interpreted that as the value is lower, the symptom is relieved.
On the 21st day, lung tissue was separated and stained using H&E and MT stain, and observed at 200× magnification. The observed results were scored by Ashcroft (Hubner et al., 2008). The fibrotic index was calculated by dividing the sum of the adjusted Ashcroft field scores by the number of fields tested, and shown in Table 4 and FIG. 3.

[4] = system: animal model of pulmonary fibrosis; assay: Inflammation cell count analysis in BALF; assay type: in vivo, mice; conditions: for Lymphocyte (BALF cell count) / Macrophage (BALF cell count) / Neutrophil (BALF cell count) / Total cell (BALF cell count): 21st day
Procedure: as §1, §2
Since fibrosis is a chronic inflammatory disease characterized by excessive collagen deposition, the infiltration of inflammatory cells was analyzed to determine the degree of inflammation in the lung tissue.
At the sacrifice on the 21st day of administration, BALF (Bronchoalveolar lavage fluid) cells obtained through airway washing of mice were diluted with 1.05×PBS and attached to a slide, and then the slide was immersed and removed for 30 seconds in the order of 1, 2, 3 diff quick stain solution, and stained. It was counted based on 500 cells. Macrophages are the largest in size, mononuclear, and stained blue. Neutrophils and eosinophils form polynuclear cells, but eosinophils are stained red with eosin and distinguished from neutrophils. Lymphocytes have very less cytoplasm and are small in size as monocytes.

[5] = Measurement of change in body weight in BLM-administered mice; assay type: in vivo; conditions: for change in body weight: 21st day
Procedure: as §1, §2
Body weight is an indirect indicator that can know the degree of improvement in the overall physical condition of the animal model. When the degree of weight loss is small, it can be inferred that the overall physical condition or symptoms of the disease are improved.
The body weight was measured using a scale on the 21st day when the administration was completed, and the results are shown in Table 6 and FIG. 5 below.

ICR mice = assay: 2-week repeated dose toxicity test in mice; assay type: in vivo; conditions: for SPLEEN % to BODY WEIGHT / SPLEEN weight / THYMUS % to BODY WEIGHT / THYMUS weight: 2 weeks, male ICR mice
Procedure: The active component was orally administered to acclimatized ICR mice for 7 days or more for 2 weeks.
After administration for 2 weeks, autopsies were performed on all animals. At autopsy, the weight of each organ was measured.

[6] = Pharmacokinetic test after single oral administration in ICR mice; assay type: in vivo; conditions: mouse, blood; ICR mice (male), single oral 10 mg/kg, saline
Procedure: The pharmacokinetic parameters were calculated using Excel® and WinNonlin6.1 software for the blood drug concentration according to the change over time obtained through LC-MS/MS, and changes in the blood concentration of the active component are shown in Table 9 and FIG. 6.

[7] = Human pharmacokinetics, single administration (SAD); assay type: in vivo; conditions: median; healthy adults, single oral 500 mg, enteric coated tablet, N = 6
Procedure: (§3) The formulation used in the clinical trial was prepared in the same manner as in Preparation Examples 1 and 2.

[8] = Human pharmacokinetics, multiple administration (MAD), Day 14; assay type: in vivo; conditions: for Accumulation ratio based on AUCT: Day 14, N = 6; for AUC(0-t): human, plasma, oral
Procedure: as §3

healthy adults = assay: Human administration safety/drug tolerance; assay type: in vivo
Procedure: as §3
The safety and drug resistance of the compound of the present invention during administration to humans was confirmed in the same manner as in Experimental Example 4.

For `Cc1ccc(=O)n(-c2ccccc2)c1` [Pirfenidone, reference compound], the SpO2 ([1]; Pirfenidone 200 mg/kg oral) was 82.00, the “collagen content in lung (hydroxyproline ratio value compared with normal group)” value ([2]; Pirfenidone 200 mg/kg oral) was 177.44 and the “Fibrotic Index (±SEM)” value ([3]; Pirfenidone 200 mg/kg oral) was 4.1 (±0.3). For the same compound, the “Lymphocyte (BALF cell count)” value ([4]; Pirfenidone 200 mg/kg oral) was 0.46, the “Macrophage (BALF cell count)” value ([4]; Pirfenidone 200 mg/kg oral) was 5.01 and the “Neutrophil (BALF cell count)” value ([4]; Pirfenidone 200 mg/kg oral) was 0.68. The “Total cell (BALF cell count)” value ([4]; Pirfenidone 200 mg/kg oral) was 6.14 and the “change in body weight” value ([5]; Pirfenidone 200 mg/kg oral) was −14.67.

In the case of `COC(=O)c1ccc2c(c1)NC(=O)/C2=C(\Nc1ccc(N(C)C(=O)CN2CCN(C)CC2)cc1)c1ccccc1` [Nintedanib, reference compound], the SpO2 ([1]; Nintedanib 60 mg/kg oral) is reported as 78.67, the “collagen content in lung (hydroxyproline ratio value compared with normal group)” value ([2]; Nintedanib 60 mg/kg oral) is reported as 239.78 and the “Fibrotic Index (±SEM)” value ([3]; Nintedanib 60 mg/kg oral) is reported as 3.1 (±0.6). For the same compound, the “Lymphocyte (BALF cell count)” value ([4]; Nintedanib 60 mg/kg oral) was 0.68, the “Macrophage (BALF cell count)” value ([4]; Nintedanib 60 mg/kg oral) was 5.61 and the “Neutrophil (BALF cell count)” value ([4]; Nintedanib 60 mg/kg oral) was 1.29. The “Total cell (BALF cell count)” value ([4]; Nintedanib 60 mg/kg oral) was 7.57 and the “change in body weight” value ([5]; Nintedanib 60 mg/kg oral) was −19.44.

In the case of `O[C@H]1CCCN[C@@H]1CCCn1cnc2c(Cl)c(Cl)ccc21` [Active component], the “oxygen permeation function improved compared with Vehicle” value ([1]; 10 mg/kg) is reported as no less than 18%, the “oxygen permeation function improved compared with Vehicle” value ([1]; 30 mg/kg) is reported as no less than 28% and the SpO2 ([1]; Active component 3 mg/kg oral) is reported as 75.00. The SpO2 ([1]; Active component 10 mg/kg oral) was 77.89, the SpO2 ([1]; Active component 30 mg/kg oral) was 81.33 and the “content of collagen in the lung compared to Vehicle” value ([2]; 10 mg/kg) was “significantly reduced”. The “content of collagen in the lung compared to Vehicle” value ([2]; 30 mg/kg) was “significantly reduced”, the “collagen content in lung (hydroxyproline ratio value compared with normal group)” value ([2]; Active component 3 mg/kg oral) was 253.56 and the “collagen content in lung (hydroxyproline ratio value compared with normal group)” value ([2]; Active component 10 mg/kg oral) was 217.22. For the same compound, the “collagen content in lung (hydroxyproline ratio value compared with normal group)” value ([2]; Active component 30 mg/kg oral) was 171.33, the “tissue improvement effect compared with NIN and PID” value ([3]; 10 mg/kg) was “tissue improvement effect equivalent to or greater than that of NIN” and the “tissue improvement effect compared with NIN and PID” value ([3]; 30 mg/kg) was “tissue improvement effect equivalent to or greater than that of NIN”. For the same compound, the “Fibrotic Index (±SEM)” value ([3]; Active component 3 mg/kg oral) was 4.6 (±0.3), the “Fibrotic Index (±SEM)” value ([3]; Active component 10 mg/kg oral) was 2.7 (±0.6) and the “Fibrotic Index (±SEM)” value ([3]; Active component 30 mg/kg oral) was 2.8 (±0.4). For the same compound, the “number of Neutrophil cells decreased compared to Vehicle” value ([4]; 10 mg/kg) was no less than 20%, the “total cell level improved compared to Vehicle” value ([4]; 10 mg/kg) was no less than 20% and the “number of Neutrophil cells decreased compared to Vehicle” value ([4]; 30 mg/kg) was no less than 60%. The “total cell level improved compared to Vehicle” value ([4]; 30 mg/kg) was no less than 30%, the “Lymphocyte (BALF cell count)” value ([4]; Active component 3 mg/kg oral) was 0.79 and the “Macrophage (BALF cell count)” value ([4]; Active component 3 mg/kg oral) was 7.80. The “Neutrophil (BALF cell count)” value ([4]; Active component 3 mg/kg oral) was 1.74, the “Total cell (BALF cell count)” value ([4]; Active component 3 mg/kg oral) was 10.32 and the “Lymphocyte (BALF cell count)” value ([4]; Active component 10 mg/kg oral) was 0.51. For the same compound, the “Macrophage (BALF cell count)” value ([4]; Active component 10 mg/kg oral) was 5.60, the “Neutrophil (BALF cell count)” value ([4]; Active component 10 mg/kg oral) was 1.54 and the “Total cell (BALF cell count)” value ([4]; Active component 10 mg/kg oral) was 7.66. The “Lymphocyte (BALF cell count)” value ([4]; Active component 30 mg/kg oral) was 0.46, the “Macrophage (BALF cell count)” value ([4]; Active component 30 mg/kg oral) was 4.91 and the “Neutrophil (BALF cell count)” value ([4]; Active component 30 mg/kg oral) was 0.82. For the same compound, the “Total cell (BALF cell count)” value ([4]; Active component 30 mg/kg oral) was 6.19, the “degree of body weight loss compared with Vehicle group” value ([5]; 10 mg/kg) was “improved” and the “degree of body weight loss compared with Vehicle group” value ([5]; 30 mg/kg) was “improved”. The “change in body weight” value ([5]; Active component 3 mg/kg oral) was −22.44, the “change in body weight” value ([5]; Active component 10 mg/kg oral) was −19.11 and the “change in body weight” value ([5]; Active component 30 mg/kg oral) was −16.78. For the same compound, the “SPLEEN % to BODY WEIGHT” value (ICR mice; 30 mg/kg/day oral) was 0.22%, the SPLEEN weight (ICR mice; 30 mg/kg/day oral) was 0.059 and the “THYMUS % to BODY WEIGHT” value (ICR mice; 30 mg/kg/day oral) was 0.10%. For the same compound, the THYMUS weight (ICR mice; 30 mg/kg/day oral) was 0.026, the “SPLEEN % to BODY WEIGHT” value (ICR mice; 60 mg/kg/day oral) was 0.25% and the SPLEEN weight (ICR mice; 60 mg/kg/day oral) was 0.070. The “THYMUS % to BODY WEIGHT” value (ICR mice; 60 mg/kg/day oral) was 0.11%, the THYMUS weight (ICR mice; 60 mg/kg/day oral) was 0.029 and the “toxicity / abnormal symptoms after repeated administration for 2 weeks” value (ICR mice; 30, 60, 120→90 mg/kg/day oral, ICR mice) was “No toxicity or significant abnormal symptoms”. For the same compound, the “SPLEEN % to BODY WEIGHT” value (ICR mice; 120→90 mg/kg/day oral) was 0.17%, the SPLEEN weight (ICR mice; 120→90 mg/kg/day oral) was 0.046 and the “THYMUS % to BODY WEIGHT” value (ICR mice; 120→90 mg/kg/day oral) was 0.05%. The THYMUS weight (ICR mice; 120→90 mg/kg/day oral) was 0.015, the “organ weight of spleen and thymus” value (ICR mice; administration group of 30 mg/kg/day or more) was “slight weight loss tendency” and the AUC [6] was 1190 ng·h/mL. The tmax [7] was 3.01 h, the “Accumulation ratio based on AUCT” value ([8]; 25 mg tablet twice a day) was 1.94 and the “Accumulation ratio based on AUCT” value ([8]; 50 mg tablet twice a day) was 2.33. The AUCT ([8]; 100 mg tablet twice a day, Day 14, 12 hour dosing interval, N = 6) was 617.40 ng·h/mL, the “Accumulation ratio based on AUCT” value ([8]; 100 mg tablet twice a day) was 1.88 and the “Accumulation ratio based on AUCT” value ([8]; 200 mg tablet twice a day) was 3.75. For the same compound, the AUC(0-t) ([8]; 25 mg tablet twice a day, Day 14, 12 hour dosing interval, N = 6) was 183 ng·h/mL, the AUC(0-t) ([8]; 50 mg tablet twice a day, Day 14, 12 hour dosing interval, N = 6) was 429 ng·h/mL and the AUC(0-t) ([8]; 200 mg tablet twice a day, Day 14, 12 hour dosing interval, N = 6) was 3010 ng·h/mL. The “serious abnormal signs or side effects in clinical trial” value (healthy adults; 72 healthy adults, single 100-600 mg and multiple 25-200 mg twice a day) was “no serious abnormal signs or side effects” and the “most frequent adverse reactions” value (healthy adults; single administration, healthy adults) was “gastrointestinal adverse events including nausea, vomiting, diarrhea and abdominal pain”.
